Measured values: patent US10239847B1, “Method for 2-oxothiazolidine-4-carboxylic acid for cellular glutathione” (JBP Group LLC, priority 2016, dated 2019)
“Also recorded” adds a separate entry of the source. Read-outs that look alike come from different tables or passages of the source.

Legend:
Dog [1] = assay: Once daily IV for 28 days, dog; format: in vivo; conditions: compared to IV dog, suggested human oral dose 0.025 g/kg
Excerpt: (§1) The following tables are a compilation of known results and estimates of NOAEL/LOAEL for various animal species and humans. […] In addition, genetic toxicity studies, Ames Test, Chromosome Aberration, and Mouse Micronucleus have been conducted and all of these studies were negative for genetic toxicity (i.e. non-genotoxic).
(§2) The following is a compilation of known results and estimates of NOAEL/LOAEL for various animal species and humans.

Human HIV patients [2] = assay: Clinical: single IV then six biweekly infusions, 13 administrations, HIV patients; format: in vivo; conditions: compared to human IV; suggested human oral dose 25 mg/kg/day
Excerpt: as §1, §2

patients with ARDS [3] = conditions: Phase II, versus placebo; cited from earlier work
[4] = test system: glutathione in rat lungs and leukocytes; conditions: sulfur amino acid deficient rat diets, supplementation; cited from earlier work
Human ARDS patients [5] = assay: Clinical: IV 63 mg/kg every 8 hours for 10 days, ARDS patients; format: in vivo; conditions: compared to IV human (ARDS); suggested human oral dose 25 mg/kg/day
Excerpt: as §1, §2

Human HIV patients [6] = assay: Clinical: single oral dose then 3000, 4500, 9000 mg/day for 28 days, HIV patients; format: in vivo; conditions: compared to human oral, suggested human oral dose 25 mg/kg/day
Excerpt: as §1, §2

Human ARDS patients [7] = conditions: IV every 8 hours for 10 days, highest dose tested, cited from earlier work
liver glutathione levels = conditions: fasted mice, dietary supplementation; cited from earlier work
Mouse [8] = assay: Single IV toxicity (NOAEL/LOAEL), mouse; format: in vivo; conditions: printed 'compared to IV rat', suggested human oral dose 0.025 g/kg
Excerpt: as §1, §2

rats [9] = assay: Acute and repeat intravenous NOAEL in rats; format: in vivo; conditions: recommended daily intake 1.75 g (~25 mg/kg) compared to rat IV NOAEL
Method: (§3) Utilizing animal (dog and rat) data and comparing that to the recommended daily procysteine (Cellactin) intake of 1.75 g or ˜25 mg/kg, that represents 18× to 96× safety margin compared to acute no adverse effect level (NOAEL) and repeat NOAEL intravenous administration in dogs (450 mg/kg) and rats (2400 mg/kg), respectively. The safety margin may be even greater if compared to animal oral administration data.
(§4) Acute NOAEL and repeat NOAEL for intravenous administration in dogs was 450 mg/kg and in rats was 2400 mg/kg, with these values representing the highest dosages intravenously tested and it is assumed that the NOAEL levels would be even higher for oral administration in animals. […] Therefore, it is reasonable to expect that a recommended human oral, daily procysteine (Cellactin) intake of 1.75 grams will be safe and an acceptable daily intake of up to 9 grams orally could also be considered safe.

Rat [10] = conditions: in vivo, iv; cited from earlier work
dogs [11] = conditions: dog, in vivo; cited from earlier work
Dog [12] = assay: Single IV toxicity (NOAEL/LOAEL), dog; format: in vivo; conditions: compared to IV dog, suggested human oral dose 0.025 g/kg
Excerpt: as §1, §2

dogs [13] = assay: Acute and repeat intravenous NOAEL in dogs; format: in vivo; conditions: recommended daily intake 1.75 g (~25 mg/kg) compared to dog IV NOAEL
Method: as §3, §4

[14] = test system: cellular glutathione levels; conditions: glutathione-depleting agents administered to otherwise healthy animals; cited from earlier work
patients with ARDS [15] = conditions: first Phase II trial, 32 ARDS patients, IV; cited from earlier work
Human HIV patients [16] = conditions: cited from earlier work
Human HIV patients [17] = conditions: oral ≥25 mg/kg daily for 1 week, highest dose tested; cited from earlier work
Human HIV patients [18] = assay: Clinical: orally up to 9000 mg/day for 2 years, HIV patients; format: in vivo
[19] = Shelf life / purity stability of Cellactin; format: physicochemical
Excerpt: FIG. 9 illustrates Cellactin shelf life estimation by extrapolation. As depicted that upper dotted line indicates an upper acceptance of 100 percent stability. The lower dotted line indicates 99 percent stability. The solid line represents the extrapolation line with the triangles representing raw data. The product has been extrapolated to be stable for 2 years as supplied if stored in original package at ambient temperature and protected from heat and moisture. […] Confirmation of extrapolation assumes the change pattern may continue to fit model for at least 24 months.

Rat [20] = conditions: in vivo, iv; cited from earlier work; remark: listed apart in the source
[21] = test system: tissue glutathione levels; conditions: acutely septic rats; cited from earlier work
Mouse [22] = conditions: in vivo, iv; cited from earlier work
Dog [23] = conditions: in vivo, iv; cited from earlier work
Human HIV patients [24] = assay: Clinical: oral ≥25 mg/kg daily for 1 week, HIV patients; format: in vivo; conditions: compared to human oral, suggested human oral dose 25 mg/kg/day
Excerpt: as §1, §2

Rat [25] = assay: Single IV toxicity (NOAEL/LOAEL), rat; format: in vivo; conditions: compared to IV rat, suggested human oral dose 0.025 g/kg
Excerpt: as §1, §2

blood glutathione levels = conditions: human, oral 25-129 mg/kg (1.75-9 g/day), dose response manner; cited from earlier work
Rat, neonate = conditions: in vivo, iv; cited from earlier work
Rat [26] = assay: Once daily IV for 28 days, rat; format: in vivo; conditions: compared to IV rat, suggested human oral dose 0.025 g/kg
Excerpt: as §1, §2

human [27] = assay: Human intravenous NOAEL calculations; format: in vivo; conditions: oral daily intake 1.75 grams compared to human intravenous NOAEL calculations
Excerpt: (§5) This would then result in an EDI/ADI ratio of 9 grams/day/9 grams/day=1. Without knowing the NOAEL or LOAEL for humans it is difficult to determine a true estimate of margin of safety. […] However, it would be reasonable to assume that a much higher estimate of safety margin would be expected based on the 4-8× estimate comparing oral, daily Procysteine (Cellactin) intake of 1.75 grams to human intravenous NOAEL calculations shown above in section 4.1 and 18 or 96× comparing to dog and rat intravenous NOAEL calculations, respectively shown above in Section 4.1. It is reasonable to conclude that the safety margin would be even greater if compared to animal oral administration data.
as §5, with “Without” for “This would then result in an EDI/ADI ratio of 9 grams/day/9 grams/day=1. Without”

rats [28] = conditions: rat, in vivo; cited from earlier work
Dog [29] = conditions: in vivo, iv; cited from earlier work; remark: listed apart in the source
Human HIV patients [30] = conditions: single IV then six biweekly infusions, 13 administrations, highest dose tested; cited from earlier work
Mouse [31] = conditions: in vivo; cited from earlier work
[32] = test system: intracellular levels of glutathione; conditions: preclinical studies; cited from earlier work
[33] = test system: tissue glutathione levels; conditions: rodent brains; cited from earlier work
human [34] = conditions: cited from earlier work
Human HIV patients [35] = assay: Clinical: oral daily for 6 months, HIV patients; format: in vivo; conditions: compared to human oral, suggested human oral dose 25 mg/kg/day
Excerpt: as §1, §2

[36] = human, oral, as used for the EDI/ADI ratio

## O=C1N[C@H](C(=O)O)CS1 [procysteine, L-2-oxothiazolidine-4-carboxylate]
Dog [1]
  Safety Margin Human Oral: 18× compared
Human HIV patients [2]
  Safety Margin Human Oral: 4X compared
Patients with ARDS [3]
  efficiency in transporting oxygen to the blood stream (measure of lung function): to a greater degree than did placebo-treated patients
[4]
  glutathione in rat lungs and leukocytes: preserved
Human ARDS patients [5]
  Safety Margin Human Oral: 8X compared
Human HIV patients [6]
  Safety Margin Human Oral: 5X compared
Human ARDS patients [7]; expressed per day
  NOAEL: ≥ 189 mg/kg/day
Human ARDS patients [7]
  NOAEL: ≥63 mg/kg/8 hours
Liver glutathione levels
  liver glutathione levels: increased
Mouse [8]
  Safety Margin Human Oral: 96× compared
Rats [9]
  safety margin: 96 ×
Rat [10]
  NOAEL: ≥2.4 g/kg
Dogs [11]
  acute NOAEL and repeat NOAEL, intravenous administration: 450 mg/kg
Dog [12]
  Safety Margin Human Oral: 18× compared
Dogs [13]
  safety margin: 18 ×
[14]
  cellular glutathione levels: maintained
Patients with ARDS [15]
  independence from mechanical ventilation versus placebo: a median of five days earlier
Human HIV patients [16]; Human HIV patients, orally up to 9000 mg/day for 2 years, highest dose tested
  NOAEL: ≥129 mg/kg/day
Human HIV patients [16]; human, up to 9 grams per day orally for 2 years
  changes in serum chemistry or hematology: without clinically significant changes
Human HIV patients [17]
  NOAEL: ≥25 mg/kg/day
Human HIV patients [18]; 9 grams/day / 9 grams/day
  EDI/ADI ratio: 1
Human HIV patients [18]; compared to human oral, 2 years, suggested human oral dose 25 mg/kg/day
  Safety Margin Human Oral: 5X compared
Human HIV patients [18]; [36]
  ADI: < 9 grams/day
  estimated daily intake (EDI): < 9 grams/day
Human HIV patients [18]; human, oral, based on 9 grams per day for 2 years
  acceptable daily intake (ADI): up to 9 grams per day
Human HIV patients [18]; recommended oral daily intake 1.75 g compared to 9 grams per day taken orally for 2 years
  safety margin: 5 ×
[19]; original package, ambient temperature, protected from heat and moisture
  shelf life (stable as supplied), by extrapolation: 2 years
[19]; two preparation batches, T0 to T6 (months)
  purity percent change: No purity percent change
Rat [20]
  NOAEL: ≥2.4 g/kg
[21]
  tissue glutathione levels: increased (repleted)
Mouse [22]
  NOAEL: ≥2.4 g/kg
Dog [23]
  NOAEL: ≥0.45 g/kg
Human HIV patients [24]
  Safety Margin Human Oral: 1X compared
Rat [25]
  Safety Margin Human Oral: 96× compared
Blood glutathione levels
  blood glutathione levels: significant increase
Rat, neonate
  NOAEL: ≥0.45 g/kg
Rat [26]
  Safety Margin Human Oral: 96× compared
Human [27]
  estimate of safety margin: 4-8 ×
Rats [28]
  acute NOAEL and repeat NOAEL, intravenous administration: 2400 mg/kg
Dog [29]
  NOAEL: ≥0.45 g/kg
Human HIV patients [30]
  NOAEL: ≥100 mg/kg/day
Mouse [31]
  Mouse Micronucleus, genetic toxicity: negative
[32]
  ROS damage: prevent
  intracellular levels of glutathione: increase
[33]
  tissue glutathione levels: increased (repleted)
Human [34]; across all clinical trials
  adverse experiences possibly related to treatment: only minor adverse experiences
Human [34]; human clinical trials
  statistically significant adverse events: No statistical significant adverse events were observed
  tolerability: well tolerated
Human [34]; human clinical trials, listed as procysteine (Cellactin)
  tolerability: generally well tolerated without observed adverse effects; also recorded: well tolerated
Human HIV patients [35]
  Safety Margin Human Oral: 5X compared
